# Experimental data from ChEMBL document CHEMBL1155571, “Pelorol from the tropical marine sponge Dactylospongia elegans” (J Nat Prod, 2000).
# Tests used:
# Plasmodium falciparum [1] = assay: Antiplasmodial activity against Plasmodium falciparum K1; type: functional, organism-based
# Plasmodium falciparum [2] = assay: Antiplasmodial activity against Plasmodium falciparum NF54; type: functional, organism-based
# tyrosine kinase = assay: Inhibition of tyrosine kinase at 1 ug/uL
# [3] = tested on: Trypanosoma brucei rhodesiense; assay: Antitrypanosomal activity against Trypanosoma rhodesiense; type: functional, organism-based
SMILES,IC50 (Plasmodium falciparum [1]) [µg/mL],IC50 (Plasmodium falciparum [2]) [µg/mL],inhibition (tyrosine kinase) [%],IC50 [3] [µg/mL]
C[C@@H]1CC[C@H]2[C@@H](C)C(=O)O[C@@H]3O[C@@]4(C)CC[C@@H]1[C@]32OO4 [ARTEMISININ],0.0014,0.0025,,
C=C1CCC[C@H]2[C@](C)(CC3=C(O)C(=O)C=C(OC)C3=O)[C@@H](C)CC[C@]12C [ILIMAQUINONE],1.74,0.949,87,7.7
COC(=O)c1cc(O)c(O)c2c1[C@]1(C)CC[C@H]3C(C)(C)CCC[C@]3(C)[C@H]1C2 [PELOROL],0.786,1.91,,17.4
